Patent US4875922A, “Pyrimidine derivatives” (Imperial Chemical Industries PLC, priority 1986, dated 1989)
Where two headings read alike, the source gives them in different places.

Experiments:
[1] = system: Barley; assay: Whole plant screen for plant growth regulator activity, barley (BR); format: in vivo, Barley (Atem); conditions: BR, 4000 ppm (4 kg/ha), visual score after 2-6 weeks; for T = Tillering or side shooting: * = decrease in tillering
Method in brief: (§1)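 Plants were sprayed with compound at 4000 ppm (4 kg/ha in a 1000 l/ha field volume) by tracksprayer and kept in a glasshouse under a 16 h photoperiod: maize and rice at 25° C. day/22° C. night, wheat and barley at 16° C. day/13° C. night. Morphology was scored visually after 2-6 weeks against formulation blanks.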

[2] = system: Wheat; assay: Whole plant screen for plant growth regulator activity, wheat (WW); format: in vivo, Wheat (Timmo); conditions: WW, 4000 ppm (4 kg/ha), visual score after 2-6 weeks; for T = Tillering or side shooting: * = decrease in tillering
Method in brief: as §1

[3] = system: Rice; assay: Whole plant screen for plant growth regulator activity, rice (RC); format: in vivo, Rice (Ishikari); conditions: 4000 ppm (4 kg/ha), visual score after 2-6 weeks; for T = Tillering or side shooting: * = decrease in tillering
Method in brief: as §1

[4] = system: Maize; assay: Whole plant screen for plant growth regulator activity, maize (MZ); format: in vivo, Maize (Earliking); conditions: 4000 ppm (4 kg/ha), visual score after 2-6 weeks
Description: Compounds 1 to 3 in Table 1 were tested for plant growth regulator activity against five species for various growth effects relevant to plant growth regulation.
The plant species used in this screen are presented in Table II with the leaf stage at which they were sprayed. Each chemical was applied at 4000 ppm (4 kg/ha in a 1000 l/ha field volume) using a tracksprayer and a SS8004E (Teejet) nozzle.
After spray the plants were grown in a glasshouse with 25° C. day/22° C. night temperatures and supplementary lighting was supplied when necessary (from mercury vapour lamps), to provide a 16 hour photoperiod. The exception to this were the temperate cereals, wheat and barley which were grown in 16° C. day/13° C. night temperatures.
After 2-6 weeks in the glasshouse, depending on the time of year, the plants were visually assessed for morphological characteristics. Formulation blanks were used as controls to assess the plants. […]

[5] = system: Apple; assay: Whole plant screen for plant growth regulator activity, apple (AP); format: in vivo, Apple (Red Delicious); conditions: 4000 ppm (4 kg/ha), visual score after 2-6 weeks
Method in brief: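 Growth-regulator effects were judged by eye on glasshouse plants 2-6 weeks post-spray (timing varying with season), using formulation blanks for comparison. Application rate was 4000 ppm, equivalent to 4 kg/ha in 1000 l/ha.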

[6] = system: Rice; assay: Intermediate Retardant Test, rice; format: in vivo, Rice (Ishikari); conditions: Oryza sativa, 672 h, read-out: Percentage Reduction in Height of Rice (Compared to formulation blank)
Method in brief: (§2)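 Overall spray at 500 and 2000 ppm (0.5 and 2 kg/ha^-1 at 1000 l/ha^-1); for apples, a 2000 ppm foliar-only spray was also compared with a 2000 ppm root drench. Rice grew in flooded 4" paddy pots, barley and apples in 4" pots. About 28 days after treatment, height (to top-most ligule, or to apex for apples) was recorded as % reduction versus formulation blank.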

[7] = system: Spring Barley; assay: Intermediate Retardant Test, spring barley; format: in vivo, Spring Barley (Atem/kym); conditions: Hordeum vulgare, 672 h, read-out: Percentage Reduction in Height of Spring Barley (Compared to formulation blank)
Method in brief: as §2

[8] = system: Apples; assay: Intermediate Retardant Test, apples, overall spray; format: in vivo, Apples (Red Delicious); conditions: approximately 28 days, Table VIII
Text: Three species are involved in this test RICE, SPRING-BARLEY and APPLES. The variety and growth stages at spray are outlined in Table V. Compounds were applied at 500 ppm and 2000 ppm respectively (0.5 kg and 2 kg/ha^-1 at a field volume of 1000 l/ha^-1) as an overall spray except in the case of certain tests on APPLES. This gives a foliar and root component in the test, i.e., this test will detect the activity of both root and foliar acting compounds. The intermediate retardant test on APPLES of which the results are given in Table IX was different, in that a foliar (only) spray at 2000 ppm was compared with a root drench, also at 2000 ppm. The rice was grown in 4" `paddy` pots, i.e., the roots and bottom of the stems are immersed in water under conditions corresponding to those in paddy fields. Spring barley and apples were grown in 4" pots. The plants were assessed for height to top-most ligule at approximately 28 days after treatment for spring barley and rice and for height to apex at approximately 28 days after the treatment for apples. In each case the result for the 500 ppm and 2000 ppm test for each compound is compared to the height of the formulation blank in that test, presented as a percentage reduction in height compared to the formulation blank.

[9] = system: Apples; assay: Intermediate Retardant Test, apples, foliar spray compared with root drench; format: in vivo, Apples (Red Delicious); conditions: 672 h, read-out: Percentage Reduction in Height of Apples (Compared to formulation blank)
Method in brief: as §2

[10] = system: Tomato; assay: Whole plant screen for plant growth regulator activity, tomato (TO); format: in vivo, Tomato (Ailsa Craig); conditions: 4000 ppm (4 kg/ha), visual score after 2-6 weeks
Method in brief: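 Tomato (Ailsa Craig), one plant per 3-inch peat pot, sprayed at 2–2½ leaves with 4000 ppm (4 kg/ha in 1000 l/ha) by track sprayer. Glasshouse 25 °C day/22 °C night, 16 h photoperiod; morphology visually scored after 2–6 weeks against formulation blanks.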

[11] = system: Barley; assay: Modified Intermediate Retardant Test, barley; format: in vivo, Barley (Atem); conditions: 2000 g/ha, overall spray, height to topmost ligule 21 days after treatment
Text: (§3) The general Intermediate Retardant Test described in Example 62 was modified by the addition of Sunflowers (SR) and the variety and growth stages at spray are outlined in Table XIII. Apart from the changes indicated, growing conditions for barley, rice and apples were as in Example 62 and growing conditions for Sunflower were as for apples. Test compounds were applied to barley, rice and apples as whole plant (overall) sprays at a rate of 2000 g/ha. Test compounds were applied to sunflowers separately as a foliar only spray at a rate of 2000 g/ha and as a root drench at a rate of 2000 g/ha.
(§4) Barley and rice were assessed for height to topmost ligule 21 days after treatment; apples were assessed for height to apex at 21 days after treatment; and sunflowers were assessed for height to apex at 14 days after treatment. The results are expressed as percentage reduction in height compared with the formulation blank in Table XIV.

[12] = system: Rice; assay: Modified Intermediate Retardant Test, rice; format: in vivo, Rice (Ishikari); conditions: 2000 g/ha, overall spray, height to topmost ligule 21 days after treatment
Text: as §3, §4

[13] = system: Apple; assay: Modified Intermediate Retardant Test, apples; format: in vivo, Apple (Red Delicious); conditions: 2000 g/ha, overall spray, height to apex 21 days after treatment
Text: as §3, §4

[14] = system: Sunflower; assay: Modified Intermediate Retardant Test, sunflower; format: in vivo; conditions: 2000 g/ha, height to apex 14 days after treatment
Text: as §3, §4

[15] = overall spray, approximately 28 days, Table VI
[16] = side-by-side comparison with prior art compound, Table X
[17] = side-by-side comparison with prior art compound, Table XI
[18] = overall spray, approximately 28 days, Table VII
[19] = 2000 ppm (Foliar), side-by-side comparison with prior art compound, Table XII
[20] = 2000 ppm (Root), side-by-side comparison with prior art compound, Table XII

SMILES: CCCCCC(O)(c1cncnc1)C(C)C (stereo not drawn) [Compound 3, 2-methyl-1-pentyl-1-(pyrimidin-5-yl)-propan-1-ol]
- G = Greening effect [1]: 2 (31-60%)
- I = Interligular or internodal length reduction [1]: 3 (61-100%)
- R = Retardation [1]: 3 (61-100%)
- T = Tillering or side shooting [1]: 3 (61-100%)
- G = Greening effect [2]: 1 (10-30%)
- I = Interligular or internodal length reduction [2]: 3 (61-100%)
- R = Retardation [2]: 3 (61-100%)
- T = Tillering or side shooting [2]: 2 (31-60%)
- G = Greening effect [3]: 2 (31-60%)
- I = Interligular or internodal length reduction [3]: 2 (31-60%)
- R = Retardation [3]: 3 (61-100%)
- T = Tillering or side shooting [3]: 1 (10-30%)
- A = Apical damage [4]: 1 (10-30%)
- G = Greening effect [5]: 1 (10-30%)
- I = Interligular or internodal length reduction [5]: 2 (31-60%)
- R = Retardation [5]: 3 (61-100%)
- Percent reduction in rice height vs formulation blank at 500 ppm [6, 15]: 17%
- Percent reduction in rice height vs formulation blank at 500 ppm [6, 16]: 17%
- Percent reduction in rice height vs formulation blank at 2000 ppm [6, 15]: 47%
- percent reduction in plant height at 500 ppm [7, 17]: 0%
- percent reduction in plant height at 2000 ppm [7, 18]: 11%
- Percentage Reduction in Height of Apples (Compared to formulation blank) ([8]; 2000 ppm): 34.1%
- percent reduction in plant height at 2000 ppm [9, 19]: 14.2%
- percent reduction in plant height at 2000 ppm [9, 20]: 62.7%

SMILES: CCCCCCC#CC(O)(c1cncnc1)C(C)C (stereo not drawn) [Compound 24]
- I = Interligular or internodal length reduction [1]: 2 (31-60%)
- R = Retardation [1]: 2 (31-60%)
- T = Tillering or side shooting [1]: 2*
- G = Greening effect [2]: 2 (31-60%)
- R = Retardation [2]: 1 (10-30%)
- G = Greening effect [10]: 2 (31-60%)
- R = Retardation [10]: 1 (10-30%)
- […] IN HEIGHT, BR [11]: 6%
- […] IN HEIGHT, RC [12]: 17%
- […] IN HEIGHT, AP [13]: 37%
- […] IN HEIGHT, SR (Foliar) ([14]; foliar only spray): 0%
- […] IN HEIGHT, SR (Root) ([14]; root drench): 3%

SMILES: CCCC#CC(O)(c1cncnc1)C(C)C (stereo not drawn) [Compound 2, 2-methyl-1-(pent-1-yne)-1-(pyrimidin-5-yl)-propan-1-ol]
- G = Greening effect [1]: 1 (10-30%)
- I = Interligular or internodal length reduction [1]: 3 (61-100%)
- R = Retardation [1]: 3 (61-100%)
- T = Tillering or side shooting [1]: 3 (61-100%)
- G = Greening effect [2]: 2 (31-60%)
- I = Interligular or internodal length reduction [2]: 3 (61-100%)
- R = Retardation [2]: 2 (31-60%)
- T = Tillering or side shooting [2]: 2 (31-60%)
- G = Greening effect [3]: 2 (31-60%)
- I = Interligular or internodal length reduction [3]: 3 (61-100%)
- R = Retardation [3]: 3 (61-100%)
- T = Tillering or side shooting [3]: 3 (61-100%)
- I = Interligular or internodal length reduction [4]: 1 (10-30%)
- R = Retardation [4]: 2 (31-60%)
- G = Greening effect [5]: 1 (10-30%)
- I = Interligular or internodal length reduction [5]: 2 (31-60%)
- R = Retardation [5]: 3 (61-100%)
- Percent reduction in rice height vs formulation blank at 500 ppm [6, 15]: 18%
- Percent reduction in rice height vs formulation blank at 500 ppm [6, 16]: 27%
- Percent reduction in rice height vs formulation blank at 2000 ppm [6, 15]: 46%
- Percent reduction in rice height vs formulation blank at 2000 ppm [6, 16]: 69%
- percent reduction in plant height at 500 ppm [7, 18]: 1%
- percent reduction in plant height at 500 ppm [7, 17]: 25%
- percent reduction in plant height at 2000 ppm [7, 18]: 20%
- percent reduction in plant height at 2000 ppm [7, 17]: 59%
- Percentage Reduction in Height of Apples (Compared to formulation blank) ([8]; 500 ppm): 10.5%
- Percentage Reduction in Height of Apples (Compared to formulation blank) ([8]; 2000 ppm): 52.1%
- percent reduction in plant height at 2000 ppm [9, 19]: 41.8%
- percent reduction in plant height at 2000 ppm [9, 20]: 64.4%

SMILES: CCCC#CC(O)(c1cncnc1)C(C)(C)C (stereo not drawn) [Compound 14, 2,2-Dimethyl-1-(pent-1-yne)-1-(pyrimidin-5yl)propan-1ol]
- G = Greening effect [1]: 2 (31-60%)
- I = Interligular or internodal length reduction [1]: 3 (61-100%)
- R = Retardation [1]: 3 (61-100%)
- T = Tillering or side shooting [1]: 3 (61-100%)
- G = Greening effect [2]: 2 (31-60%)
- I = Interligular or internodal length reduction [2]: 3 (61-100%)
- R = Retardation [2]: 3 (61-100%)
- T = Tillering or side shooting [2]: 3 (61-100%)
- G = Greening effect [3]: 2 (31-60%)
- I = Interligular or internodal length reduction [3]: 2 (31-60%)
- R = Retardation [3]: 3 (61-100%)
- A = Apical damage [4]: 1 (10-30%)
- G = Greening effect [4]: 2 (31-60%)
- I = Interligular or internodal length reduction [4]: 3 (61-100%)
- R = Retardation [4]: 2 (31-60%)
- G = Greening effect [5]: 3 (61-100%)
- I = Interligular or internodal length reduction [5]: 3 (61-100%)
- R = Retardation [5]: 3 (61-100%)
- T = Tillering or side shooting ([5]; * = decrease in tillering): 1 (10-30%)
- G = Greening effect [10]: 2 (31-60%)
- I = Interligular or internodal length reduction [10]: 2 (31-60%)
- R = Retardation [10]: 3 (61-100%)
- Percent reduction in rice height vs formulation blank at 500 ppm [6, 15]: 63%
- Percent reduction in rice height vs formulation blank at 2000 ppm [6, 15]: 76%
- percent reduction in plant height at 500 ppm [7, 18]: 51%
- percent reduction in plant height at 2000 ppm [7, 18]: 68%
- percent reduction in plant height at 2000 ppm ([9]; 2000 ppm (Foliar), approximately 28 days, Table IX): 23%
- percent reduction in plant height at 2000 µg/mL ([9]; soil, 2000 pmm (Root), root drench, approximately 28 days, Table IX): 58.5%
